Results reported in ChEMBL document CHEMBL5329194, “Design, Synthesis, and Evaluation of 18F-Labeling CYP1B1 PET Tracer Based on 2-Phenylquinazolin” (Bioorg Med Chem Lett, 2023).

Legend:
[1] = Ratio of drug level in tumor to blood in KM mouse xenografted with human HCT-116 cells measured after 1 hr block group; assay type: ADME, tissue-based
[2] = Drug uptake in human HCT-15 cells measured after 1 hr; assay type: ADME, cell-based; conditions: hct-15, 1 h
[3] = Drug distribution in KM mouse muscle xenografted with human HCT-116 cells measured after 1 hr; assay type: ADME, tissue-based, Muscle tissue; conditions: read-out: Drug uptake
[4] = Drug uptake in human MCF7 cells measured after 1 hr; assay type: ADME, cell-based; conditions: mcf7, 1 h
[5] = Drug distribution in KM mouse bone xenografted with human HCT-116 cells measured after 1 hr; assay type: ADME, tissue-based, Bone element; conditions: read-out: Drug uptake
[6] = Drug distribution in KM mouse blood xenografted with human HCT-116 cells measured after 1 hr; assay type: ADME, tissue-based; conditions: read-out: Drug uptake
[7] = Drug accumulation in small intestine of KM mouse measured after 2 hrs; assay type: ADME, tissue-based; conditions: read-out: Drug uptake
[8] = Ratio of drug level in tumor to blood in KM mouse xenografted with human HCT-116 cells measured after 1 hr; assay type: ADME, tissue-based
[9] = Drug uptake in human HCT-15 cells measured after 30 mins in presence of 2-(4-bromophenyl)-4-(2-(2-(2-fluoroethoxy)ethoxy)ethoxy)quinazoline; assay type: ADME, cell-based; conditions: hct-15, 0.5 h
[10] = Drug accumulation in liver of KM mouse measured after 10 mins; assay type: ADME, tissue-based; conditions: read-out: Drug uptake
[11] = Lipophilicity, logP of compound; assay type: physicochemical; conditions: octanol/water
[12] = Drug accumulation in heart of KM mouse measured after 10 mins; assay type: ADME, tissue-based; conditions: in vivo
[13] = Drug uptake in KM mouse intestine xenografted with human HCT-116 cells measured after 80 mins by PET imaging based analysis; assay type: ADME, tissue-based; conditions: 1.333 h
[14] = Drug distribution in KM mouse stomach xenografted with human HCT-116 cells measured after 1 hr; assay type: ADME, tissue-based; conditions: read-out: Drug uptake
[15] = Drug distribution in KM mouse liver xenografted with human HCT-116 cells measured after 1 hr; assay type: ADME, tissue-based; conditions: read-out: Drug uptake
[16] = Stability of compound in mouse plasma assessed as compound remaining measured after 1 to 2 hrs; assay type: ADME, cell-free; conditions: time 1-2 hrs
[17] = Drug distribution in KM mouse intestine xenografted with human HCT-116 cells measured after 1 hr; assay type: ADME, tissue-based; conditions: read-out: Drug uptake
[18] = Drug distribution in KM mouse kidney xenografted with human HCT-116 cells measured after 1 hr; assay type: ADME, tissue-based; conditions: read-out: Drug uptake
[19] = Drug distribution in KM mouse stomach xenografted with human HCT-116 cells measured after 1 hr block group; assay type: ADME, tissue-based; conditions: read-out: Drug uptake
[20] = Drug distribution in KM mouse spleen xenografted with human HCT-116 cells measured after 1 hr; assay type: ADME, tissue-based; conditions: read-out: Drug uptake
[21] = Drug accumulation in intestine of KM mouse measured after 30 mins; assay type: ADME, tissue-based; conditions: read-out: Drug uptake
[22] = Drug uptake in human HCT-116 cells measured after 30 mins; assay type: ADME, cell-based; conditions: hct-116, 0.5 h
[23] = Drug distribution in KM mouse spleen xenografted with human HCT-116 cells measured after 1 hr block group; assay type: ADME, tissue-based; conditions: read-out: Drug uptake
[24] = Drug distribution in KM mouse pancreas xenografted with human HCT-116 cells measured after 1 hr block group; assay type: ADME, tissue-based; conditions: read-out: Drug uptake
[25] = Drug distribution in KM mouse tumor xenografted with HCT-116 cells measured after 1 hr; assay type: ADME, tissue-based, Neoplasm; conditions: read-out: Drug uptake
[26] = Drug uptake in KM mouse liver xenografted with human HCT-116 cells measured after 40 to 60 mins by PET imaging based analysis; assay type: ADME, tissue-based; conditions: time 40-60 min
[27] = Drug distribution in KM mouse bone xenografted with human HCT-116 cells measured after 1 hr block group; assay type: ADME, tissue-based, Bone element; conditions: read-out: Drug uptake
[28] = Ratio of drug level in tumor to muscle in KM mouse xenografted with human HCT-116 cells measured after 1 hr; assay type: ADME, tissue-based
[29] = Drug accumulation in blood of KM mouse measured after 2 hrs; assay type: ADME, tissue-based; conditions: read-out: Drug uptake
[30] = Retention time of the compound; assay type: physicochemical
[31] = Drug uptake in KM mouse gastrointestinal tract xenografted with human HCT-116 cells measured after 40 to 60 mins by PET imaging based analysis; assay type: ADME, tissue-based; conditions: time 40-60 min
[32] = Drug distribution in KM mouse brain xenografted with human HCT-116 cells measured after 1 hr; assay type: ADME, tissue-based; conditions: read-out: Drug uptake
[33] = Drug distribution in KM mouse muscle xenografted with human HCT-116 cells measured after 1 hr block group; assay type: ADME, tissue-based, Muscle tissue; conditions: read-out: Drug uptake
[34] = Drug accumulation in brain of KM mouse measured after 10 mins; assay type: ADME, tissue-based; conditions: read-out: Drug uptake
[35] = Drug distribution in KM mouse blood xenografted with human HCT-116 cells measured after 1 hr block group; assay type: ADME, tissue-based; conditions: read-out: Drug uptake
[36] = Drug distribution in KM mouse kidney xenografted with human HCT-116 cells measured after 1 hr block group; assay type: ADME, tissue-based; conditions: read-out: Drug uptake
[37] = Drug distribution in KM mouse lung xenografted with human HCT-116 cells measured after 1 hr block group; assay type: ADME, tissue-based; conditions: read-out: Drug uptake
[38] = Drug accumulation in bone of KM mouse measured after 2 hrs; assay type: ADME, tissue-based, Bone element; conditions: read-out: Drug uptake
[39] = Drug uptake in mouse liver measured after 10 mins; assay type: ADME, tissue-based; conditions: in vivo
[40] = Drug distribution in KM mouse tumor xenografted with human HCT-116 cells measured after 1 hr block group; assay type: ADME, tissue-based, Neoplasm; conditions: read-out: Drug uptake
[41] = Drug distribution in KM mouse brain xenografted with human HCT-116 cells measured after 1 hr block group; assay type: ADME, tissue-based; conditions: read-out: Drug uptake
[42] = Drug distribution in KM mouse lung xenografted with human HCT-116 cells measured after 1 hr; assay type: ADME, tissue-based; conditions: read-out: Drug uptake
[43] = Drug distribution in KM mouse heart xenografted with human HCT-116 cells measured after 1 hr; assay type: ADME, tissue-based; conditions: read-out: Drug uptake
[44] = Drug distribution in KM mouse heart xenografted with human HCT-116 cells measured after 1 hr block group; assay type: ADME, tissue-based; conditions: read-out: Drug uptake
[45] = Drug uptake in human HCT-116 cells at 10 nM measured after 30 min; assay type: ADME, cell-based; conditions: hct-116, 0.5 h, 0.01 µM
[46] = Drug distribution in KM mouse intestine xenografted with human HCT-116 cells measured after 1 hrs block group; assay type: ADME, tissue-based; conditions: read-out: Drug uptake
[47] = Stability of compound in PBS assessed as compound remaining measure after 1 to 2 hrs; assay type: physicochemical; conditions: buffer; time 1-2 hrs
[48] = Ratio of drug level in tumor to muscle in KM mouse xenografted with human HCT-116 cells measured after 1 hr block group; assay type: ADME, tissue-based
[49] = Drug distribution in KM mouse liver xenografted with human HCT-116 cells measured after 1 hr block group; assay type: ADME, tissue-based; conditions: read-out: Drug uptake
[50] = Drug uptake in mouse liver measured after 60 min; assay type: ADME, tissue-based; conditions: in vivo, 1 h
[51] = Drug distribution in KM mouse pancreas xenografted with human HCT-116 cells measured after 1 hr; assay type: ADME, tissue-based; conditions: read-out: Drug uptake
[52] = Drug uptake in human MCF7 cells measured after 30 mins in presence of 2-(4-bromophenyl)-4-(2-(2-(2-fluoroethoxy)ethoxy)ethoxy)quinazoline; assay type: ADME, cell-based; conditions: mcf7, 0.5 h

[18F]CCOCCOCCOc1nc(-c2ccc(Br)cc2)nc2ccccc12
Kp at 1 h [1]: 1.01
Drug uptake [2]: 25.61%
tissue uptake at 1 h [3]: 4.92 %ID/g
Drug uptake [4]: 25.26%
tissue uptake at 1 h [5]: 2.81 %ID/g
tissue uptake at 1 h [6]: 4.15 %ID/g
tissue uptake at 2 h [7]: 8.37 %ID/g
Kp at 1 h [8]: 1.16
Drug uptake [9]: 18.35%
tissue uptake at 10 min [10]: 10.2 %ID/g
logP [11]: 3.88
Drug uptake [12]: Active
Drug uptake [13]: Active
tissue uptake at 1 h [14]: 1.75 %ID/g
tissue uptake at 1 h [15]: 9.99 %ID/g
Stability [16]: > 90%
tissue uptake at 1 h [17]: 8.84 %ID/g
tissue uptake at 1 h [18]: 8.49 %ID/g
tissue uptake at 1 h [19]: 1.6 %ID/g
tissue uptake at 1 h [20]: 6.45 %ID/g
tissue uptake at 0.5 h [21]: 10.8 %ID/g
Drug uptake [22]: 35.27%
tissue uptake at 1 h [23]: 5.62 %ID/g
tissue uptake at 1 h [24]: 7.53 %ID/g
tissue uptake at 1 h [25]: 4.76 %ID/g
Drug uptake [26]: Active
tissue uptake at 1 h [27]: 2.44 %ID/g
Ratio [28]: 0.98
tissue uptake at 2 h [29]: 3.97 %ID/g
Retention_time [30]: 2.97 min
Drug uptake [31]: Active
tissue uptake at 1 h [32]: 7.34 %ID/g
tissue uptake at 1 h [33]: 4.2 %ID/g
tissue uptake at 10 min [34]: 7.94 %ID/g
tissue uptake at 1 h [35]: 3.3 %ID/g
tissue uptake at 1 h [36]: 7.65 %ID/g
tissue uptake at 1 h [37]: 5.42 %ID/g
tissue uptake at 2 h [38]: 5.62 %ID/g
Drug uptake [39]: 83.7%
tissue uptake at 1 h [40]: 3.31 %ID/g
tissue uptake at 1 h [41]: 6.56 %ID/g
tissue uptake at 1 h [42]: 5.66 %ID/g
tissue uptake at 1 h [43]: 6.4 %ID/g
tissue uptake at 1 h [44]: 5.23 %ID/g
Drug uptake [45]: 23.64%
tissue uptake at 1 h [46]: 7.1 %ID/g
Stability [47]: > 90%
Ratio [48]: 0.79
tissue uptake at 1 h [49]: 9.5 %ID/g
Drug uptake [50]: 37.63%
tissue uptake at 1 h [51]: 8.21 %ID/g
Drug uptake [52]: 13.62%
